{"source": "patent US10766926B2", "about": "“Composition for autophagy inhibiting in cell, and pharmaceutical composition for preventing or treating tumor disease, or inhibiting anti-cancer agents resistance containing the same” (L-BASE CO., LTD, priority 2018, dated 2020)", "key": {"H1975 cell line": {"system": "H1975 cell line", "test": "MTT assay, resistance of H1975 cell line to osimertinib after polypeptide treatment", "type": "cell-based", "conditions": "for anticancer activity through the inhibition of autophagy: conclusion of Example 5", "method": "Additionally, after the treatment with the polypeptide 1, polypeptide 2, and polypeptide 3, respectively, the MTT assay was performed so as to confirm the resistance to osimertinib (Tagrisso), an anticancer agent.\nSpecifically, an equal number of cells of the H1975 cell line were plated into a 96-well cell culture plate and treated with the polypeptides (1 to 3) for 24 hours. Then, the cells were treated with osimertinib (Tagrisso), an anticancer agent, which was subjected to a 1/10-fold serial dilution, for 24 hours and were confirmed using MTT. As an experiment to utilize the principle that NADH present in the mitochondria of a living cell reacts with MTT to form formazan, formazan was dissolved in DMSO and its absorbance was measured at 570 nm and thereby the growth activity of the cells was confirmed."}, "PC9-ER cell line [1]": {"system": "PC9-ER cell line", "test": "MTT assay, resistance of PC9-ER cell line to anticancer agent after polypeptide treatment", "type": "cell-based", "conditions": "conclusion of Example 2", "method": "Additionally, the PC9-ER cell line was treated with the polypeptide 1, polypeptide 2, and GNTITIKT (polypeptide 3), respectively, and the MTT assay was performed so as to confirm the resistance of the PC9-ER cell line to anticancer agents.\n(§1) Specifically, the PC9-ER cell line was plated on a 96-well cell culture plate and treated with each of the polypeptides (1 to 3) for 24 hours. Then, the cells were treated for with an anticancer agent subjected to a 1/10-fold serial dilution for 24 hours and confirmed using MTT. As an experiment to utilize the principle that NADH present in the mitochondria of a living cell reacts with MTT to form formazan, formazan was dissolved in DMSO and its absorbance was measured at 570 nm and thereby the growth activity of the cells was confirmed."}, "[2]": {"system": "PC9 cell line and PC9-ER cell line", "test": "MTT assay, resistance of PC9 and PC9-ER cell lines to anticancer agents", "type": "cell-based", "conditions": "anticancer agent 1/10-fold serial dilution, 24 hours, FIGS. 3A and 3B", "method": "The cancer cell line (PC9) used in the present invention was cultured in a minimum essential medium in a conditioned incubator (37° C.) supplemented with 10% fetal bovine serum and antibiotics. The cancer cell line (PC9-ER) was constructed to have resistance by exposing to erlotinib as an anticancer agent for a long period of time.\nAdditionally, the MTT assay was performed so as to confirm the resistance of the PC9 cell line and the PC9-ER cell line to anticancer agents.\nas §1, with “Specifically, an equal number of the PC9 cell line and” for “Specifically,”, “were cultured in” for “was plated on”, “plate,” for “plate and”, “treated” for “treated with each of the polypeptides (1 to 3) for 24 hours. Then, the cells were treated for”, “hours,” for “hours”"}, "MCF7^R cell line [3]": {"system": "MCF7^R cell line", "test": "western blot of autophagy controlling proteins in MCF7^R cell line", "type": "cell-based", "conditions": "FIG. 12", "method": "MCF7^R cancer cell line having resistance to anticancer agents was constructed to have resistance by exposing to celastrol for a long period of time\nTo examine the effects of the polypeptide 1 and the polypeptide 2 on the proteins of autophagy controlling mechanism, western blot was performed using each labeled antibody in the MCF7^R cell line."}, "PC9-ER cell line [4]": {"system": "PC9-ER cell line", "test": "inhibitory effect against tumor formation, PC9-ER tumor in nude mice", "type": "in vivo, athymic nude mice (BALB/C nude)", "conditions": "PC9-ER tumor in nude mice, 0, 50, 100, 200 μg/mouse, 5 injections through caudal vein, measured on day 41; FIGS. 8A-8C", "method": "(§2) Specifically, athymic nude mice (BALB/C nude, 5 to 6-week old females) were subcutaneously injected on the side with the PC9-ER cell line (2×10^6 cells/mouse) to induce tumor. When the tumor volume reached about 150 mm^3, the polypeptide 2 was injected a total of 5 times through the caudal vein and the changes in the tumor size were examined. The tumor volume was directly measured using a caliper and calculated by the following equation (length×width×height×0.5). In order to confirm the inhibitory effect of the polypeptide 2 against tumor formation, the peptide (at concentrations of 0 μg/mouse, 50 μg/mouse, 100 μg/mouse, and 200 μg/mouse) was injected 5 times through the caudal vein from day 25 at 3 day intervals. On the 41st day, the tumors were separated and the sizes of the tumor volumes were measured, and western blot was performed using each labeled antibody."}, "PC9-ER cell line [5]": {"system": "PC9-ER cell line", "test": "western blot of autophagy mechanism proteins in PC9-ER cell line treated with polypeptide", "type": "cell-based", "conditions": "FIG. 4", "method": "An attempt was made to confirm the inhibitory effects of SPTPKT (polypeptide 1) and QTATAKA (polypeptide 2) against autophagy, based on the results that the expression of ATG5 and ATG5-ATG12 proteins which are known to be involved in autophagy in the cancer cell line (PC9-ER).\nSpecifically, the PC9-ER cell line was treated with each of the polypeptide 1 and the polypeptide 2 and the expression levels of Beclin1, p-Belclin1, ATG5-ATG12, LC3 I, and LC3 II (i.e., proteins associated with autophagy mechanism) were compared by western blot method, and the results are shown in FIG. 4."}, "MCF7^R cell line [6]": {"system": "MCF7^R cell line", "test": "LC3 immunofluorescence staining in MCF7^R cell line", "type": "cell-based", "conditions": "24 hours treatment, confocal microscopy, FIG. 13", "method": "Additionally, after the treatment with the polypeptide 2 in the MCF7^R cell line, the immunofluorescence staining was performed.\n(§3) Specifically, after treating the polypeptide 2 on the MCF7^R cell line for 24 hours, the cells were fixed at room temperature using 4% formaldehyde. Then, the cells were reacted at room temperature for 30 minutes so as to prevent inaccurate binding to antibodies using PBS containing 0.1% BSA, and allowed to react with LC3 antibodies (cell signaling) at 4° C. for 24 hours. After removing the antibodies, the cells were washed with PBS and allowed to react with secondary antibodies (Thermo Fisher) labeled with Alexa 488 fluorescence at room temperature for 1.5 hours. After the reaction, the cells from which antibodies were removed were washed with PBS and stained with DAPI (Thermo Fisher) for 1 minute."}, "PC9-ER cell line [7]": {"system": "PC9-ER cell line", "test": "western blot of tumor tissue from PC9-ER tumor-bearing nude mice", "type": "in vivo, athymic nude mice (BALB/C nude)", "conditions": "50-200 μg/mouse, FIG. 9", "method": "as §2"}, "H1975 cells": {"system": "H1975 cells", "test": "western blot of autophagy controlling proteins in H1975 cells", "type": "cell-based", "conditions": "FIG. 10"}, "PC9-ER cell line [8]": {"system": "PC9-ER cell line", "test": "LC3 immunofluorescence staining in PC9-ER cell line", "type": "cell-based", "conditions": "24 hours after treatment, confocal microscopy, FIG. 5", "method": "Additionally, the cells were subjected to immunofluorescence staining after treating the PC9-ER cell line with the polypeptide 2.\nas §3, with “Specifically, 24 hours” for “Specifically,”, “PC9-ER” for “polypeptide 2 on the MCF7^R”, “with the polypeptide 2,” for “for 24 hours,”"}}, "data": [{"compound": "GNTITIKT [polypeptide 3]", "values": [{"measurement": "anticancer activity through the inhibition of autophagy", "setting": "H1975 cell line", "result": "anticancer activity"}, {"measurement": "inhibitory effect against autophagy in the cancer cell line having resistance to anticancer agents", "setting": "PC9-ER cell line [1]", "result": "inhibitory effect against autophagy"}]}, {"compound": "CC(=O)O[C@H]1C(=O)[C@@]2(C)[C@H]([C@H](OC(=O)c3ccccc3)[C@]3(O)C[C@H](OC(=O)[C@H](O)[C@@H](NC(=O)c4ccccc4)c4ccccc4)C(C)=C1C3(C)C)[C@]1(OC(C)=O)CO[C@@H]1C[C@@H]2O", "note": "[taxol]", "values": [{"measurement": "resistance of PC9-ER cell line to the anticancer agent compared to PC9 cell line", "setting": "[2]", "result": "higher resistance"}]}, {"compound": "QTATAKA [polypeptide 2]", "values": [{"measurement": "expression level of p62 protein", "setting": "MCF7^R cell line [3]", "result": "increased"}, {"measurement": "expression levels of p-Beclin1, ATG5, ATG5-ATG12, LC3 I and LC3 II proteins", "setting": "MCF7^R cell line [3]", "result": "reduced"}, {"measurement": "size of tumors (tumor volume)", "setting": "PC9-ER cell line [4]", "result": "significantly reduced"}, {"measurement": "expression levels of Beclin1, p-Beclin1, ATG5-ATG12, LC3 I and LC3 II proteins", "setting": "PC9-ER cell line [5]", "result": "lowered"}, {"measurement": "expression level of LC3 puncta", "setting": "MCF7^R cell line [6]", "result": "lowered"}, {"measurement": "expression of p-AMPK, Beclin1 and p-Beclin1 proteins in tumor tissue", "setting": "PC9-ER cell line [7]", "result": "decreased in a concentration-dependent manner"}, {"measurement": "expression of p-mTOR and p62 proteins in tumor tissue", "setting": "PC9-ER cell line [7]", "result": "increased in a concentration-dependent manner"}, {"measurement": "expression of p-AMPK, p-Beclin1, ATG5, ATG5-ATG12, LC3 I and LC3 II", "setting": "H1975 cells", "result": "lowered"}, {"measurement": "expression level of LC3 puncta", "setting": "PC9-ER cell line [8]", "result": "lowered"}, {"measurement": "resistance to osimertinib (Tagrisso), polypeptide at different concentrations", "setting": "H1975 cell line; MTT", "result": "reduced in a concentration-dependent manner"}, {"measurement": "anticancer activity through the inhibition of autophagy", "setting": "H1975 cell line", "result": "anticancer activity"}, {"measurement": "inhibitory effect against autophagy in the cancer cell line having resistance to anticancer agents", "setting": "PC9-ER cell line [1]", "result": "inhibitory effect against autophagy"}]}, {"compound": "SPTPKT [polypeptide 1]", "values": [{"measurement": "expression level of p62 protein", "setting": "MCF7^R cell line [3]", "result": "increased"}, {"measurement": "expression levels of p-Beclin1, ATG5, ATG5-ATG12, LC3 I and LC3 II proteins", "setting": "MCF7^R cell line [3]", "result": "reduced"}, {"measurement": "expression levels of Beclin1, p-Beclin1, ATG5-ATG12, LC3 I and LC3 II proteins", "setting": "PC9-ER cell line [5]", "result": "lowered"}, {"measurement": "expression of p-AMPK, p-Beclin1, ATG5, ATG5-ATG12, LC3 I and LC3 II", "setting": "H1975 cells", "result": "lowered"}, {"measurement": "anticancer activity through the inhibition of autophagy", "setting": "H1975 cell line", "result": "anticancer activity"}, {"measurement": "inhibitory effect against autophagy in the cancer cell line having resistance to anticancer agents", "setting": "PC9-ER cell line [1]", "result": "inhibitory effect against autophagy"}]}, {"compound": "CC(=O)O[C@@]12CO[C@@H]1C[C@H](O)[C@@]1(C)C(=O)[C@H](O)C3=C(C)[C@@H](OC(=O)[C@H](O)[C@@H](NC(=O)OC(C)(C)C)c4ccccc4)C[C@@](O)([C@@H](OC(=O)c4ccccc4)[C@H]21)C3(C)C", "note": "[docetaxel]", "values": [{"measurement": "resistance of PC9-ER cell line to the anticancer agent compared to PC9 cell line", "setting": "[2]", "result": "higher resistance"}]}]}
